This is an account of results in US20170071990A1 (Pizeta Group Srl, priority 2014, published 2017).

SMILES strings stand for the structures.

One data set concerns Lactobacillus jensenii. Particulars: L. jensenii single culture, 24 hours at 37° C., 5% CO2, 0.625% boric acid; MRS without boric acid 7.63 × 10^6.
The conditions of data set [1]: vaginal suppositories 600 mg/ovule, throughout the duration of the treatment; cited from earlier work.
Data set [2] deals with Candida albicans. Particulars: summary statement of the description.
In data set [3] the test system is Candida albicans. Particulars: cited from earlier work.
The subject of a further data set is Lactobacillus rhamnosus. Particulars: L. rhamnosus single culture, 24 hours at 37° C., 5% CO2, 0.625% boric acid; MRS without boric acid 7.45 × 10^6.
The subject of a further data set is Lactobacillus gasseri. As to conditions: L. gasseri single culture, 24 hours at 37° C., 5% CO2, 0.625% boric acid; MRS without boric acid 7.28 × 10^6.
In data set [4] the test system is lactobacilli tested, either alone or in combination. Particulars: 0.625% boric acid.
The test system of a further data set is Lactobacillus crispatus. As to conditions: L. crispatus single culture, 24 hours at 37° C., 5% CO2, 0.625% boric acid; MRS without boric acid 1.19 × 10^7.
The test system of the next data set is Gardnerella vaginalis. As to conditions: summary statement of the description.
Data set [5] relates to mixture of four lactobacilli. As to conditions: mix of four lactobacilli, 24 hours at 37° C., 5% CO2, 0.625% boric acid; MRS without boric acid 7.63 × 10^6.
[6] abbreviates: low concentrations, non-therapeutic doses, first 24 hours.

In the case of `OB(O)O` [boric acid], the “lactobacilli culture count, MRS with boric acid” value is 7.47 × 10^6 in the data set with Lactobacillus jensenii; 3.17 × 10^6 with Lactobacillus rhamnosus; 2.37 × 10^6 in the data set on Lactobacillus gasseri; 6.29 × 10^6 with Lactobacillus crispatus; 7.40 × 10^6 in data set [5]. For the same molecule, in [1], the “circulation levels of boric acid” value is reported as “under 1 μg/ml”. Also, the “activity against Candida albicans” value with Candida albicans [2] is “good activity”. Further, the “pH at which the substance completely inhibits the growth of Candida albicans” value with Candida albicans [3] (in vitro tests) is listed as 5-5.9. The cellular ergosterol result in the data set with Candida albicans [3] (setting [6]) was “decrease”. The “inhibition of the micro-organisms growth, planktonic and biofilm form” value in the data set on Candida albicans [3] (setting [6]) is “moderate inhibition”. Further, the “inhibitory effect on the growth of the lactobacilli” value in [4] was “no inhibitory effect”. For the same molecule, the “activity against Gardnerella vaginalis” value with Gardnerella vaginalis is on record as “poor activity”.
